# Data taken from patent US20240050403A1, “THERAPY OF POST-OPERATIVE EMESIS WITH AMISULPRIDE” (Acacia Pharma Limited, priority 2016, published 2024).
# “And” between values parts separate entries of the source, which are not always exact repeats. Identical values can stand only once.
# Tests used:
# Assay type in all cases: in vivo, human
# adult surgical patients [1] = experiment: Phase II clinical trial, multi-centre, double-blind, randomised, placebo-controlled, PONV incidence
# Procedure: In a multi-centre, double-blind, randomised, placebo-controlled Phase II clinical trial in adult surgical patients (conducted by the applicant), administration of amisulpride at 5 mg was associated with a PONV incidence of 40%, compared to 69% with placebo (p<0.01).
# adult surgical patients [2] = experiment: Two Phase III clinical trials, multi-centre, double-blind, randomised, placebo-controlled, PONV incidence
# Procedure: In two multi-centre, double-blind, randomised, placebo-controlled Phase III clinical trials involving 626 evaluable, adult surgical patients (again conducted by the applicant), administration of amisulpride at 5 mg was associated with a PONV incidence of 48%, compared to 59% with placebo (p<0.01).
# [3] = test system: adult, surgical patients at high risk of PONV; experiment: Study 1: Phase III study of amisulpride as combination prophylaxis against PONV in high-risk patients
# Procedure: A randomised, double-blind, placebo-controlled Phase Ill study of amisulpride as combination prophylaxis against post-operative nausea and vomiting in high-risk patients was conducted. The primary aim of the study was to assess the efficacy of amisulpride at 5 mg in the prevention of post-operative nausea and vomiting (PONV) in adult, surgical patients at high risk of PONV. The amisulpride was administered in combination with a standard anti-emetic.
# The subjects of the study were 1204 randomised adult patients ([…]) at high risk of PONV who were undergoing elective ambulatory (day-case) or in-patient surgery under general inhalational anaesthesia for an expected duration of at least one hour from induction of anaesthesia to extubation. Of the 1204 randomised patients, 1147 were dosed and eligible.
# High risk of PONV was defined as having at least three of the following risk factors: • Past history of PONV and/or motion sickness • Habitual non-smoking status • Female • Expected use of post-operative opioid analgesia
# 5 mg amisulpride was administered as a single, slow, intravenous (IV) push over one minute at the time of induction of anaesthesia; given in combination with a standard anti-emetic. Examples of standard anti-emetics used were ondansetron, granisetron and dexamethasone.
# The two arms of the study were as follows: • Arm 1: amisulpride IV at 5 mg in combination with a standard anti-emetic which is not a dopamine D2-antagonist (e.g. ondansetron IV at 4 mg, granisetron IV at 1 mg, or dexamethasone IV at 4 mg); • Arm 2 (control): amisulpride IV placebo in combination with a standard anti-emetic, as defined above • The primary efficacy variable was the absence or presence of PONV during the 24-hour post-operative period, where PONV was defined as the occurrence of one or more emetic episodes (vomiting and/or retching) or the receipt of one or more doses of rescue anti-emetic medication. Absence of PONV by this definition was termed “Complete Response” (CR). A number of secondary variables were evaluated including the occurrence of emesis (vomiting and/or retching).
# A comparison of the incidence of CR in the 0-24-hour period after surgery between the amisulpride group and the placebo group using Pearson's x2 test with Yates's continuity correction at a one-sided significance level of 2.5%. The primary efficacy analysis population was the modified intent-to-treat (mITT) population.
# Secondary efficacy variables assessed by incidence (e.g., emesis) were compared between the groups using Pearson's x2 test.
smiles,measurement,setting,value
"CCN1CCCC1CNC(=O)c1cc(S(=O)(=O)CC)c(N)cc1OC (racemic) [Amisulpride, amisulpride]",PONV incidence,"adult surgical patients [1]; amisulpride at 5 mg, placebo 69% (p<0.01)",40%
same,"adverse events, laboratory or ECG abnormalities versus placebo",adult surgical patients [1]; amisulpride versus placebo,"no difference in the nature, incidence or severity of adverse events, or of laboratory or ECG abnormalities"
same,PONV incidence,"adult surgical patients [2]; amisulpride at 5 mg, 626 evaluable patients, placebo 59% (p<0.01)",48%
same,safety profile versus placebo,adult surgical patients [2]; amisulpride versus placebo,no significant difference between the safety profiles
same,transient increases in serum prolactin levels,adult surgical patients [2]; amisulpride versus placebo,more common with amisulpride
same,Calculated RRR (relative risk reduction) of post-operative emesis,[3]; 5 mg IV plus a standard anti-emetic versus placebo plus standard anti-emetic,30.94%
same,Calculated RRR (relative risk reduction) of PONV,"[3]; 5 mg IV plus a standard anti-emetic versus placebo plus standard anti-emetic, 24 hour period",20.8% and 20.76%
same,Calculated RRR (relative risk reduction) of post-operative emesis,"[3]; 5 mg IV plus a standard anti-emetic versus placebo plus standard anti-emetic, listed as amisulpride",31%
same,Difference in PONV rate (improvement in CR rate) versus placebo plus standard anti-emetic,"[3]; 5 mg IV plus a standard anti-emetic, 24 hour period, mITT, p<0.001",11.08%
same,Number of patients with PONV,"[3]; 5 mg IV plus a standard anti-emetic, 24 hour period, of 572 patients",242
same,Number of patients with CR (complete response),"[3]; 5 mg IV plus a standard anti-emetic, 24 hour period, of 572 patients (mITT)",330
same,% patients with PONV,"[3]; 5 mg IV plus a standard anti-emetic, 24 hour period, placebo plus standard anti-emetic 53.39",42.31%
same,Number of patients with post-operative emesis (vomiting and/or retching),"[3]; 5 mg IV plus a standard anti-emetic, of 572 patients",79
same,Difference in post-operative emesis rate versus placebo plus standard anti-emetic,"[3]; 5 mg IV plus a standard anti-emetic, p=0.003",6.19%
same,% patients with post-operative emesis (vomiting and/or retching),"[3]; 5 mg IV plus a standard anti-emetic, placebo plus standard anti-emetic 20.00",13.81%
